Test results: US20060004019A1, “Steroid sparing agents and methods of using same” (priority 2004, published 2006)

Tested on: rat cardiac allografts
Experiment: Rat cardiac allograft study, Allograft Study 5, dose response (Table 23)
Type: in vivo

CC(C)OC(=O)[C@H](Cc1ccc(OC(=O)N2CCN(C)CC2)cc1)NC(=O)[C@H]1N([S+]([O-])c2cccnc2)CSC1(C)C (stereo partly drawn)
graft survival, data normalized to group size (day 1, 3 mg/kg s.c.): 100%
graft survival, data normalized to group size (day 2, 3 mg/kg s.c.): 100%
graft survival, data normalized to group size (day 3, 3 mg/kg s.c.): 100%
graft survival, data normalized to group size (day 4, 3 mg/kg s.c.): 100%
graft survival, data normalized to group size (day 5, 3 mg/kg s.c.): 100%
graft survival, data normalized to group size (day 6, 3 mg/kg s.c.): 100%
graft survival, data normalized to group size (day 7, 3 mg/kg s.c.): 83%
graft survival, data normalized to group size (day 8, 3 mg/kg s.c.): 83%
graft survival, data normalized to group size (day 9, 3 mg/kg s.c.): 50%
graft survival, data normalized to group size (day 10, 3 mg/kg s.c.): 0%
graft survival, data normalized to group size (day 11, 3 mg/kg s.c.): 0%
graft survival, data normalized to group size (day 12, 3 mg/kg s.c.): 0%
graft survival, data normalized to group size (day 13, 3 mg/kg s.c.): 0%
graft survival, data normalized to group size (day 14, 3 mg/kg s.c.): 0%

CC(C)OC(=O)[C@H](Cc1ccc(OC(=O)N2CCN(C)CC2)cc1)NC(=O)[C@H]1N(S(=O)(=O)c2cccnc2)CSC1(C)C [listing 1 of 2 here]
graft survival, data normalized to group size (day 1, 10 mg/kg s.c.): 100%
graft survival, data normalized to group size (day 2, 10 mg/kg s.c.): 100%
graft survival, data normalized to group size (day 3, 10 mg/kg s.c.): 100%
graft survival, data normalized to group size (day 4, 10 mg/kg s.c.): 100%
graft survival, data normalized to group size (day 5, 10 mg/kg s.c.): 100%
graft survival, data normalized to group size (day 6, 10 mg/kg s.c.): 100%
graft survival, data normalized to group size (day 7, 10 mg/kg s.c.): 100%
graft survival, data normalized to group size (day 8, 10 mg/kg s.c.): 100%
graft survival, data normalized to group size (day 9, 10 mg/kg s.c.): 80%
graft survival, data normalized to group size (day 10, 10 mg/kg s.c.): 80%
graft survival, data normalized to group size (day 11, 10 mg/kg s.c.): 80%
graft survival, data normalized to group size (day 12, 10 mg/kg s.c.): 80%
graft survival, data normalized to group size (day 13, 10 mg/kg s.c.): 40%
graft survival, data normalized to group size (day 14, 10 mg/kg s.c.): 40%

CC(C)OC(=O)[C@H](Cc1ccc(OC(=O)N2CCN(C)CC2)cc1)NC(=O)[C@H]1N(S(=O)(=O)c2cccnc2)CSC1(C)C [listing 2 of 2 here]
graft survival, data normalized to group size (day 1, 30 mg/kg s.c.): 100%
graft survival, data normalized to group size (day 2, 30 mg/kg s.c.): 100%
graft survival, data normalized to group size (day 3, 30 mg/kg s.c.): 100%
graft survival, data normalized to group size (day 4, 30 mg/kg s.c.): 100%
graft survival, data normalized to group size (day 5, 30 mg/kg s.c.): 100%
graft survival, data normalized to group size (day 6, 30 mg/kg s.c.): 100%
graft survival, data normalized to group size (day 7, 30 mg/kg s.c.): 100%
graft survival, data normalized to group size (day 8, 30 mg/kg s.c.): 100%
graft survival, data normalized to group size (day 9, 30 mg/kg s.c.): 100%
graft survival, data normalized to group size (day 10, 30 mg/kg s.c.): 100%
graft survival, data normalized to group size (day 11, 30 mg/kg s.c.): 100%
graft survival, data normalized to group size (day 12, 30 mg/kg s.c.): 100%
graft survival, data normalized to group size (day 13, 30 mg/kg s.c.): 100%
graft survival, data normalized to group size (day 14, 30 mg/kg s.c.): 100%
